{"source": "patent US9381257B2", "about": "“Triarylmethyl radicals” (BRACCO IMAGING S.P.A., priority 2012, dated 2016)", "key": {"[1]": {"assay": "DNP polarization build-up and dissolution of ethylacetoacetate with the radical as polarizing agent", "settings": "18 mM radical in 15-Crown-5 / 1,3-13C2 ethylacetoacetate; DNP at 1.2 K, 3.35 T, microwave irradiation", "procedure": "Radical 1 (1.50 mg, 1.4 μmol) was dissolved in 15-Crown-5 (60.5 μl, 67.2 mg) to make a 24 mM solution. To 30 μl (33.7 mg) of this solution was added 1,3-^13C2 ethylacetoacetate (10.5 mg, 79 μmol, 158 μmol ^13C). The radical 1 concentration in the mixture was 18 mM.\n43 mg of the composition prepared above were transferred from the Eppendorf tube to a sample cup and the sample cup was inserted into a DNP polarizer. The composition was polarised under DNP conditions at 1.2 K in a 3.35 T magnetic field under irradiation with microwave (93.900 GHz). The calculated solid-state polarization was 17% and the polarization build-up constant was 900 s.\nThe sample was dissolved in 6 ml 40 mM phosphate buffer pH 7.3+100 mg/l EDTA. A time series of 1D 13C-NMR spectra were recorded with a total delay between the pulses of 3 s. The liquid state polarization was 14% after 12 s transfer time. The pH was 7.3 in the dissolved sample. […]\n43 mg of the composition prepared above were transferred from the Eppendorf tube to a sample cup and the sample cup was inserted into a DNP polarizer. […] The calculated solid-state polarization was 18% and the polarization build-up constant was 1700 s.\nThe sample was dissolved in 6 ml 40 mM phosphate buffer pH 7.3+100 mg/l EDTA. A time series of 1D 13C-NMR spectra were recorded with a total delay between the pulses of 3 s. […]"}, "[2]": {"assay": "Precipitation of the radical on aqueous dissolution and removal by mechanical filtration (UV-Vis check of filtrate)", "type": "physicochemical", "procedure": "The sample was dissolved in 6 ml 40 mM phosphate buffer pH 7.3+100 mg/l EDTA. A time series of 1D 13C-NMR spectra were recorded with a total delay between the pulses of 3 s. The liquid state polarization was 14% after 12 s transfer time. The pH was 7.3 in the dissolved sample.\nThe sample was dissolved in 6 ml 40 mM phosphate buffer pH 7.3+100 mg/l EDTA. A time series of 1D 13C-NMR spectra were recorded with a total delay between the pulses of 3 s. The liquid state polarization was 15% after 12 s transfer time. The pH was 7.3 in the dissolved sample. The sample was filtered through a syringe filter (Acrodisk 25 mm PVDF filter, 0.45 μm pore size). Filtration of the full volume was completed in <3 s. […] Since the high extinction coefficients of the trityl radicals allow reliable determination of concentration down to approximately 1-1.5 μM, the concentration in the filtrate was below these values. The radical was removed to >99%."}}, "data": [{"substance": "tris{8-carboxyl-2,2,6,6-tetramethyl-benzo(1,2-d:4,5-dS)bis(1,3)dithiole-4-yl}methyl sodium salt [Radical 1, reference compound]", "values": [{"measurement": "polarization build-up constant", "setting": "[1]", "result": 900, "unit": "s"}, {"measurement": "removal of the radical by mechanical filtration", "setting": "[2]; after water dissolution", "result": "cannot be removed by mechanical filtration"}, {"measurement": "precipitation of the radical in water dissolution", "setting": "[2]; dissolved in 6 ml 40 mM phosphate buffer pH 7.3 + 100 mg/l EDTA", "result": "does not precipitate"}]}]}
